The values that follow come from PMC4655142 (Neuropharmacology, 2015).

Series [1] concerns the target [125I]-epibatidine binding sites (α4β2-nAChR), cortex membranes (Mus musculus, UniProt O70174+Q9ERK7). The experiment in a line: Inhibition of [125I]-epibatidine binding to cortex membranes. Also noted: species or system C57Bl/6J mice.
For series [2] the following is noted: cited from earlier work.
For series [3] the following is noted: cited from earlier work. The source holds these as a separate data set.
The conditions of series [4]: cited from earlier work. The source holds these as a separate data set.
For a further series, the system named is C57Bl/6J mice. The experiment in a line: Tolerance to acute nicotine after chronic treatment. As to conditions: Mus musculus, ip. It counts as in vivo.

Like-named read-outs stand apart in the source and are kept apart here.

Chain of [125I]-epibatidine binding sites (α4β2-nAChR), cortex membranes (O70174 31-629): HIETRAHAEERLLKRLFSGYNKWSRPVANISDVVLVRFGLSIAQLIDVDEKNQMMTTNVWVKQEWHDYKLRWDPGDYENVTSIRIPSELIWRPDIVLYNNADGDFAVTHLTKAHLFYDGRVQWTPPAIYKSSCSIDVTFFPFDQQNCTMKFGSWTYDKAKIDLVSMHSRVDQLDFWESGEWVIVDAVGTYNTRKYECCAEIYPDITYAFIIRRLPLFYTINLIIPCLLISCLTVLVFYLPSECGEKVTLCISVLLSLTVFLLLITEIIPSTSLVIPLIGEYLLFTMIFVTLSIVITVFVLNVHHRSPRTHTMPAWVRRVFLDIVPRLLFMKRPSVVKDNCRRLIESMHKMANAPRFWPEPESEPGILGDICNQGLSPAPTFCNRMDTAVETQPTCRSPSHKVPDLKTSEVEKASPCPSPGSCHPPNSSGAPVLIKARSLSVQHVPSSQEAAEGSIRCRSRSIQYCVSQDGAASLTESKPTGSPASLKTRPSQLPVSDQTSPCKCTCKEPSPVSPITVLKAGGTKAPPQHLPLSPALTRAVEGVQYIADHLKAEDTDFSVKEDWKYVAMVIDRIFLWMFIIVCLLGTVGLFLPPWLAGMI
Chain of [125I]-epibatidine binding sites (α4β2-nAChR), cortex membranes (Q9ERK7 26-501): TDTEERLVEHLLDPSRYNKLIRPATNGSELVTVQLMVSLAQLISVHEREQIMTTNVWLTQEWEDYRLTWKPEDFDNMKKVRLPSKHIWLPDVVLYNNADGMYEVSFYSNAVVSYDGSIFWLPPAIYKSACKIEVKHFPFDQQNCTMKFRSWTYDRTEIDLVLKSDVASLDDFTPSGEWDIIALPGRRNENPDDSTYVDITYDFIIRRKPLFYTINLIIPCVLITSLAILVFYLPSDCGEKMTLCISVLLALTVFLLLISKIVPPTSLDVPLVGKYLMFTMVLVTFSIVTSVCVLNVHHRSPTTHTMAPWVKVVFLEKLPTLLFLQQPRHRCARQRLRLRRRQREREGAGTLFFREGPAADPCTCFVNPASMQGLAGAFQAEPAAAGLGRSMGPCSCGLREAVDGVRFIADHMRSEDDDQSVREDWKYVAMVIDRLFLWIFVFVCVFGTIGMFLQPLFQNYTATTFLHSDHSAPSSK

On to `c1cnc2cc3c(cc2n1)[C@@H]1CNC[C@H]3C1` [Varenicline], for which the affinity in series [1], expressed as Ki, was 0.11 ± 0.01 nM. Further, the “brain:plasma ratio” value in series [2] (rats, ref Hussmann, Turner et al, 2012) is recorded as 1.5. In addition, the Plasma level result was “up to 20 ng/ml” in series [3] (humans taking varenicline, smoking cessation study, ref Dobrinas et al, 2011) and 4 to 6 ng/mL in series [3] (humans, single oral dose 1 mg (~[…]), ref Obach et al, 2006, Al-Haj et al, 2013). The “t ½” value in series [3] (humans, ref Obach et al, 2006) was 17.6 h. Besides, in series [4] (mice, single oral dose of 3 mg (or ~120 mg/kg), ref Obach et al, 2006), the Peak plasma level is 293 ng/mL.

In the case of `CN1CCC[C@H]1c1cccnc1` [Nicotine], the ED50 – broadly, the dose at which the effect has come halfway, by size or by number of responders – came out at 0.8 ± 0.05 mg/kg in the series on C57Bl/6J mice (24 h, read-out: ED50 of acute ip nicotine, Body temperature); 0.6 ± 0.06 mg/kg in the series on C57Bl/6J mice (24 h, read-out: ED50 of acute ip nicotine, Open field); 0.49 ± 0.04 mg/kg in the series with C57Bl/6J mice (24 h, read-out: ED50 of acute ip nicotine, Y-maze cross); 0.38 ± 0.03 mg/kg with C57Bl/6J mice (24 h, read-out: ED50 of acute ip nicotine, Y-maze rear); 0.88 ± 0.09 mg/kg in the series with C57Bl/6J mice (read-out: ED50 of acute ip nicotine, Body temperature); 0.55 ± 0.06 mg/kg in the series on C57Bl/6J mice (read-out: ED50 of acute ip nicotine, Open field). The ED50 turned out to be 0.47 ± 0.06 mg/kg in the series on C57Bl/6J mice (read-out: ED50 of acute ip nicotine, Y-maze cross) and 0.38 ± 0.05 mg/kg in the series with C57Bl/6J mice (read-out: ED50 of acute ip nicotine, Y-maze rear). The Plasma level in series [2] (rat, sc infusion of 2.4 mg/kg/day, ref Rowell and Li, 1997) is 43 ng/mL; in series [2] (rats, 0.8 mg/kg/day, ref Ghosheh et al, 2001), 6.5 ng/mL; in series [2] (rats, 6.0 mg/kg/day, ref Hussman, Turner et al, 2012, Doura et al, 2008) it was 146 to 313 ng/mL; in series [3] (human smokers, pre-quit, smoking cessation trial, ref Dobrinas et al, 2011) it was “up to 52 ng/ml”; in series [4] (mice, 12-24 mg/kg/day, ref Marks, Rowell et al., 2004, Matta et al, 2007), 40 to 80 ng/mL; in series [4] (mice, similar chronic treatment protocols, ref Marks, Rowell et al., 2004), 40 to 80 ng/mL. For the same compound, the Plasma level in series [4] (mouse, in vivo, sc, 1 mg/kg) was 160 ng/mL.
